{"source": "patent US20230398125A1", "about": "“TREATING HEPATITIS” (Albireo AB, priority 2022, published 2023)", "key": {"Human IBAT": {"molecular_target": "T1, Human IBAT (Homo sapiens, UniProt Q12908)", "T1 construct": "expressed in transfected cells; kept under puromycin selection", "T1 sequence (Q12908 1-348)": "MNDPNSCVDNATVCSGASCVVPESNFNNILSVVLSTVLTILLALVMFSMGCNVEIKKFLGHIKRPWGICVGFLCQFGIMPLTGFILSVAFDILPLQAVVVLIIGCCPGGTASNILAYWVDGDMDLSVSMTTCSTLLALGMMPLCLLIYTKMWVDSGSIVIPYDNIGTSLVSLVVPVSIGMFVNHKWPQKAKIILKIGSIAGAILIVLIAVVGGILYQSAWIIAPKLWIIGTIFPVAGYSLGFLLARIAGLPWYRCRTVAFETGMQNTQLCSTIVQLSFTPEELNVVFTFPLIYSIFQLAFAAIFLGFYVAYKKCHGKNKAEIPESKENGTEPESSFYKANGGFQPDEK", "experiment": "3H-taurocholic acid uptake in human IBAT-overexpressing cells", "format": "cell-based", "settings": "3H-taurocholic acid transport", "experimental": "10,000 cells (Human & Mouse IBAT-overexpressing cells) were seeded in 96-wells plate in 100 μL MEM-alpha medium supplemented with 10% FBS containing puromycin (10 μg/mL) and incubated at 37° C. in 5% CO2 for 48 hrs. After incubation media was decanted from the wells, cells were washed two times with 250 μL of basal MEM-alpha medium (FBS-free). After each wash, plates were tapped against paper towel to ensure maximum removal of residual media. Test inhibitor dilutions (highest test concentration being 10 μM, 3-fold serial dilution, 10 concentrations) prepared in DMSO were added to the incubation mix (maintaining 0.2% final DMSO concentration) containing 0.25 μM ^3H-taurocholic acid and 5 μM of cold taurocholic acid. […]\nAfter incubation, the reaction was stopped by keeping the plates on ice water mix for 2-3 minutes and then the incubation mix was aspirated completely from the wells. […] 100 μL of MicroScint-20 was added to the wells and kept overnight at room temperature before reading the plates in MicroBeta2 liquid Scintillation Counter from PerkinElmer under ^3H Test for I/L-BAT protocol (set at 120 seconds reading time per well, with normal plate orientation).\n(§1) Percentage inhibitions were calculated with respect to the assay controls. […]"}, "Human NTCP": {"molecular_target": "T2, Human NTCP (Homo sapiens, UniProt Q14973)", "T2 construct": "expressed in transfected cells; peptide purchased from Pharmaron", "T2 sequence (Q14973 1-349)": "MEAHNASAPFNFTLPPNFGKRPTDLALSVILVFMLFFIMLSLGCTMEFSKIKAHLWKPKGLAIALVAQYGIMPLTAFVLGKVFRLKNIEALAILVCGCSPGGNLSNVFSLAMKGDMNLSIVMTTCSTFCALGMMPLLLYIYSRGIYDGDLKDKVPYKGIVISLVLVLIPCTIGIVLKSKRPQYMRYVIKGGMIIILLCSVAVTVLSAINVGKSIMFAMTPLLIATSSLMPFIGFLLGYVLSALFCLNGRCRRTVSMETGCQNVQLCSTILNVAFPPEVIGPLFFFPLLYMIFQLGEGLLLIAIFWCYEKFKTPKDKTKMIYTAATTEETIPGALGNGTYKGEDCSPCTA", "experiment": "3H-taurocholic acid uptake in human NTCP-overexpressing cells", "format": "cell-based", "settings": "3H-taurocholic acid transport", "experimental": "20,000 cells (Human & Mouse NTCP-overexpressing cells) were seeded in 96-well plate in 100 μL MEM-alpha medium supplemented with 10% FBS containing geneticin (1 mg/mL) and incubated at 37° C. in 5% CO2 for 24 hrs. After incubation, media was decanted from the wells and cells were washed two times with 250 μL of basal MEM-alpha medium (FBS-free). After each wash, plates were tapped against a paper towel to ensure maximum removal of residual media. For Human NTCP (hNTCP), incubation mix was prepared by adding test inhibitor dilutions (3-fold serial dilution in DMSO, 10 concentrations) in MEM-alpha (without FBS) containing 0.3 μM ^3H-taurocholic acid and 7.5 μM cold taurocholic acid (maintaining 0.2% final DMSO concentration). […]\nThe plates were tapped against a paper towel after every wash to ensure maximum removal of blocking buffer. 100 μL of MicroScint-20 was added to the wells and kept overnight at room temperature before reading the plates in MicroBeta2 liquid Scintillation Counter from PerkinElmer under 3H Test for I/L-BAT protocol (set at 120 seconds reading time per well, with normal plate orientation).\nas §1"}}}
{"smiles": "CCCCC1CN(c2ccccc2)c2cc(SC)c(O/C=C(\\F)C(=O)O)cc2S(=O)(=O)N1C", "note": "(centres unmarked) [Compound 1, (Z)-3-((3-butyl-2-methyl-7-(methylthio)-1,1-dioxido-5-phenyl-2,3,4,5-tetrahydro-1,2,5-benzothiadiazepin-8-yl)oxy)-2-fluoroacrylic acid]", "values": [{"measurement": "IC50", "setting": "Human IBAT", "value": "535 ± 83.3", "unit": "nM"}, {"measurement": "IC50", "setting": "Human NTCP", "value": "0.53 ± 0.081", "unit": "nM"}]}
